According to patent US20230212120A1, “SMALL MOLECULE INHIBITORS OF GRK5 AND GRK5 SUBFAMILY MEMBERS AND USES THEREOF” (The Regents of the University of Michigan, priority 2020, published 2023):
Converted amounts (≈) assume the structure as drawn. “And” between values parts separate entries of the source, which are not always exact repeats. Equal entries are not always repeated. Where two headings read alike, the source gives them in different places. One block for each molecule: values may come before it.

What was measured:
bovine GRK2 = target: T1, bovine GRK2 (Bos taurus, UniProt P21146); assay: radiometric GRK2 inhibition assay (tubulin phosphorylation)
T1 sequence (P21146 1-689): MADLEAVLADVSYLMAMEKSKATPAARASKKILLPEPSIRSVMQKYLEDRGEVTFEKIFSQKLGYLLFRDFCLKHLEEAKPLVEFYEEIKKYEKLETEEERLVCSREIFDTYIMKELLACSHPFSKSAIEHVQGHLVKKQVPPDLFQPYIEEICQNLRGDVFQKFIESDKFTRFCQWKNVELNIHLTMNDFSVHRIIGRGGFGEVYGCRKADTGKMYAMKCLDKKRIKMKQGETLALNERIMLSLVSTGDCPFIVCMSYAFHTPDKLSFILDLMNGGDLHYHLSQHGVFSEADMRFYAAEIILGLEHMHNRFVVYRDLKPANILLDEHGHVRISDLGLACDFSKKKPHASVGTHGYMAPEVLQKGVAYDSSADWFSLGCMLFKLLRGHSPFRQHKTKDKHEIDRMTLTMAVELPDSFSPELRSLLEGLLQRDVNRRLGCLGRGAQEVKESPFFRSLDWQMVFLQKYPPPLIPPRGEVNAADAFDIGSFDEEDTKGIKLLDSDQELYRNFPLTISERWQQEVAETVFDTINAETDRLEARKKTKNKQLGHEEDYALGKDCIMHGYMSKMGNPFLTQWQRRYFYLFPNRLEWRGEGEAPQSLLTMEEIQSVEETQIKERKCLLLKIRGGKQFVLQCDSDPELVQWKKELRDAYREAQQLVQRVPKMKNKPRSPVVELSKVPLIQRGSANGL

[1] = Thermodynamic solubility (Analiza Inc.); type: physicochemical; settings: for pH After Assay / solubility thermodynamic: Water; for pH After Assay: solubility assay; for solubility thermodynamic: n=1
Source text: Experimental data collected by Analiza Inc. Experimental values represent an average of n=1 experiments.

PKA = PKA (Homo sapiens, UniProt P17612); assay: PKA inhibition assay (ADP-Glo); type: biochemical
Procedure: The PKA inhibition assays were performed with the ADP-Glo system (Promega Corporation) according to the manufactory's instruction. […] After the initial reaction, ADP-Glo reagent was added to the reaction and allowed to incubate for an additional 40 min. Lastly, the kinase detection reagent was added and allowed to incubate for 30 min, and the luminescence was measured with a FlexStation 3 Multi-mode Microplate Reader (Molecular Devices). All data was analyzed in the same way as GRK inhibition assay. Experiments were performed three times in duplicate.
Standard control compounds are run during each assay to assess consistency across time, experimenters, and subtle changes in assay conditions that are sometimes required to keep some of the compounds soluble and disperse (such as through addition of DDM or 3% DMSO). Paroxetine were used as controls for GRK2 and PKA, and CCG215022 for GRK5.

GRK5 = GRK5 (Homo sapiens, UniProt P34947); assay: radiometric GRK5 inhibition assay (tubulin phosphorylation)
Chain of GRK5 (P34947 whole entry): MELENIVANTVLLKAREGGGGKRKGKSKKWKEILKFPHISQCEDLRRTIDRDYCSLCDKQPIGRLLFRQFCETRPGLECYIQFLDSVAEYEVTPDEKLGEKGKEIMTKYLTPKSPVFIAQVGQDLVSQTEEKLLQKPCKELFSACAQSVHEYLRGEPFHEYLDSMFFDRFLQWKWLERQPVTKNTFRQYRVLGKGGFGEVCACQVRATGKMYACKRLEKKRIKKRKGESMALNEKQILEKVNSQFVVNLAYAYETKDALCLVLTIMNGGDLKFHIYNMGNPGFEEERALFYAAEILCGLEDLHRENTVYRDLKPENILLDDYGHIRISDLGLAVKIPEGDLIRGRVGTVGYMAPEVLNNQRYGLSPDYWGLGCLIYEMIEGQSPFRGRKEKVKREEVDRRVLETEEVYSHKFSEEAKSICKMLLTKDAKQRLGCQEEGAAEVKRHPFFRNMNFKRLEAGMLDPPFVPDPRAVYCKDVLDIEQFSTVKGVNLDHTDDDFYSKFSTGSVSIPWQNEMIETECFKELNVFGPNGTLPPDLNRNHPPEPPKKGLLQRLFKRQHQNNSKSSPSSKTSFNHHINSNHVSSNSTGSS

[2] = read-out: GRK2 IC50, Table 1, μM ± SD
[3] = read-out: GRK2 IC50, Table 2, μM ± SD

Structure (SMILES): CCN(CC)CCNC(=O)c1c(C)[nH]c(/C=C2\C(=O)Nc3ccc(C(=O)N[C@@H](C)c4ccccc4)cc32)c1C [Compound 5b, (S,Z)-3-((4-((2-(diethylamino)ethyl)carbamoyl)-3,5-dimethyl-1H-pyrrol-2-yl)methylene)-2-oxo-N-(1-phenylethyl)indoline-5-carboxamide]
IC50 (bovine GRK2; [2]): 44 ± 18 µM

Structure (SMILES): Cc1[nH]c(/C=C2\C(=O)Nc3ccc(C(=O)N[C@H](C)c4ccc(Cl)cc4)cc32)c(C)c1NC(=O)CCl [Compound 9o, (R,Z)-3-((4-(2-chloroacetamido)-3,5-dimethyl-1H-pyrrol-2-yl)methylene)-N-(1-(4-chlorophenyl)ethyl)-2-oxoindoline-5-carboxamide]
pH After Assay [1]: 4
solubility thermodynamic ([1]; thermodynamic from solid): 205 µM and 105 µg/mL
IC50 (bovine GRK2; [3]): 0.7 ± 0.2 µM

Structure (SMILES): CC1=C(C(=O)Nc2ccc3[nH]ncc3c2)C(c2ccc(F)c(C(=O)NCc3ccccn3)c2)NC(=O)N1 (centres unmarked) [CCG 215022, reference compound]
IC50 (PKA; Table 1, μM ± SD): > 250 µM

Structure (SMILES): Cc1ccc([C@@H](C)NC(=O)c2ccc3c(c2)/C(=C/c2[nH]c(C)c(NC(=O)CCl)c2C)C(=O)N3)cc1 [Compound 9n, (R,Z)-3-((4-(2-chloroacetamido)-3,5-dimethyl-1H-pyrrol-2-yl)methylene)-2-oxo-N-(1-(p-tolyl)ethyl)indoline-5-carboxamide]
pH After Assay [1]: 2.5
solubility thermodynamic ([1]; thermodynamic from solid): 252 µM and 124 µg/mL
GRK2/GRK5 (GRK5; Table 2, ratio of IC50 values): 3
IC50 (bovine GRK2; [3]): 2.1 ± 1 µM

Structure (SMILES): CCN(CC)CCNC(=O)c1c(C)[nH]c(/C=C2\C(=O)Nc3ccc(C(=O)N[C@H](C)c4ccccc4)cc32)c1C [Compound 5a, (R,Z)-3-((4-((2-(diethylamino)ethyl)carbamoyl)-3,5-dimethyl-1H-pyrrol-2-yl)methylene)-2-oxo-N-(1-phenylethyl)indoline-5-carboxamide]
IC50 (PKA; Table 1, μM ± SD): > 250 µM
IC50 (bovine GRK2; [2]): 1.1 ± 0.7 µM

Structure (SMILES): C=CCCNC(=O)c1c(C)[nH]c(/C=C2\C(=O)Nc3ccc(C(=O)N[C@H](C)c4ccccc4)cc32)c1C [Compound 5f, (R,Z)-3-((4-(but-3-en-1-ylcarbamoyl)-3,5-dimethyl-1H-pyrrol-2-yl)methylene)-2-oxo-N-(1-phenylethyl)indoline-5-carboxamide]
IC50 (GRK5): 1.9 ± 0.05 µM
GRK2/GRK5 (GRK5; Table 1, ratio of IC50 values): 330
IC50 (bovine GRK2; [2]): 630 ± 200 µM

Structure (SMILES): Cc1[nH]c(/C=C2\C(=O)Nc3ccc(C(=O)N[C@H](C)c4ccccc4)cc32)c(C)c1NC(=O)CCl [Compound 9e, (R,Z)-3-((4-(2-chloroacetamido)-3,5-dimethyl-1H-pyrrol-2-yl)methylene)-2-oxo-N-(1-phenylethyl)indoline-5-carboxamide]
IC50 (PKA; Table 1, μM ± SD): > 250 µM
pH After Assay [1]: 5
solubility thermodynamic ([1]; thermodynamic from solid): 75.1 µM and 35.7 µg/mL
IC50 (bovine GRK2; [2]): 350 ± 100 µM

Structure (SMILES): Fc1ccc([C@@H]2CCNC[C@H]2COc2ccc3c(c2)OCO3)cc1 [paroxetine, reference compound]
IC50 (PKA; Table 1, μM ± SD): 850 ± 400 µM

Structure (SMILES): Cc1[nH]c(/C=C2\C(=O)Nc3ccc(C(=O)N[C@H](C)c4ccccc4)cc32)c(C)c1[N+](=O)[O-] [Compound 7a, (R,Z)-3-((3,5-dimethyl-4-nitro-1H-pyrrol-2-yl)methylene)-2-oxo-N-(1-phenylethyl)indoline-5-carboxamide]
IC50 (bovine GRK2; [2]): 7.2 ± 3 µM

Structure (SMILES): C=CCNC(=O)c1c(C)[nH]c(/C=C2\C(=O)Nc3ccc(C(=O)N[C@H](C)c4ccccc4)cc32)c1C [Compound 5d, (R,Z)-3-((4-(allylcarbamoyl)-3,5-dimethyl-1H-pyrrol-2-yl)methylene)-2-oxo-N-(1-phenylethyl)indoline-5-carboxamide]
IC50 (PKA; Table 1, μM ± SD): > 250 µM
IC50 (bovine GRK2; [2]): 22 ± 10 µM

Second part, the molecule after the results:

IC50 (bovine GRK2; [2]): 120 ± 80 µM
Structure (SMILES): Cc1[nH]c(/C=C2\C(=O)Nc3ccc(C(=O)N[C@H](C)c4ccccc4)cc32)c(C)c1NC(=O)/C(C#N)=C/C(C)(C)C [Compound 10a, (Z)-3-((4-((E)-2-cyano-4,4-dimethylpent-2-enamido)-3,5-dimethyl-1H-pyrrol-2-yl)methylene)-2-oxo-N—((R)-1-phenylethyl)indoline-5-carboxamide]

IC50 (bovine GRK2; [3]): 3.6 ± 2 µM
Structure (SMILES): Cc1[nH]c(/C=C2\C(=O)Nc3ccc(C(=O)N[C@H](C)c4ccc(F)cc4)cc32)c(C)c1NC(=O)CBr [Compound 9p, (R,Z)-3-((4-(2-bromoacetamido)-3,5-dimethyl-1H-pyrrol-2-yl)methylene)-N-(1-(4-fluorophenyl)ethyl)-2-oxoindoline-5-carboxamide]

IC50 (PKA; Table 2, μM ± SD): > 250 µM
IC50 (bovine GRK2; [3]): 19 ± 10 µM
Structure (SMILES): Cc1[nH]c(/C=C2\C(=O)Nc3ccc(C(=O)N[C@H](C)c4cccc(Cl)c4)cc32)c(C)c1NC(=O)CCl [Compound 9m, (R,Z)-3-((4-(2-chloroacetamido)-3,5-dimethyl-1H-pyrrol-2-yl)methylene)-N-(1-(3-chlorophenyl)ethyl)-2-oxoindoline-5-carboxamide]

solubility thermodynamic [1]: 262 µM (≈ 125 µg/mL)
pH After Assay [1]: 4
IC50 (bovine GRK2; [3]): 9.6 ± 5 µM
Structure (SMILES): Cc1[nH]c(/C=C2\C(=O)Nc3ccc(C(=O)N[C@H](C)c4ccccn4)cc32)c(C)c1NC(=O)CCl [Compound 9l, (R,Z)-3-((4-(2-chloroacetamido)-3,5-dimethyl-1H-pyrrol-2-yl)methylene)-2-oxo-N-(1-(pyridin-2-yl)ethyl)indoline-5-carboxamide]

IC50 (PKA; Table 2, μM ± SD): 69 ± 10 µM
IC50 (bovine GRK2; [3]): 15 ± 7 µM
Structure (SMILES): Cc1[nH]c(/C=C2\C(=O)Nc3ccc(C(=O)NC4(c5ccccc5)COC4)cc32)c(C)c1NC(=O)CCl [Compound 9t, (Z)-3-((4-(2-chloroacetamido)-3,5-dimethyl-1H-pyrrol-2-yl)methylene)-2-oxo-N-(3-phenyloxetan-3-yl)indoline-5-carboxamide]

IC50 (PKA; Table 1, μM ± SD): > 250 µM
IC50 (bovine GRK2; [2]): 6.7 ± 5 µM
Structure (SMILES): Cc1[nH]c(/C=C2\C(=O)Nc3ccc(C(=O)N[C@H](C)c4ccccc4)cc32)c(C)c1NC(=O)C(O)CCl (stereo partly drawn) [Compound 9h, (Z)-3-((4-(3-chloro-2-hydroxypropanamido)-3,5-dimethyl-1H-pyrrol-2-yl)methylene)-2-oxo-N—((R)-1-phenylethyl)indoline-5-carboxamide]

IC50 (bovine GRK2; [2]): 280 ± 110 µM
Structure (SMILES): C=CS(=O)(=O)Nc1c(C)[nH]c(/C=C2\C(=O)Nc3ccc(C(=O)N[C@H](C)c4ccccc4)cc32)c1C [Compound 9c, (R,Z)-3-((3,5-dimethyl-4-(vinylsulfonamido)-1H-pyrrol-2-yl)methylene)-2-oxo-N-(1-phenylethyl)indoline-5-carboxamide]

aqueous solubility relative to 9e ([1]; compared to 9e): less than 2 fold
IC50 (bovine GRK2; [3]): 1.7 ± 2 µM
Structure (SMILES): Cc1[nH]c(/C=C2\C(=O)Nc3ccc(C(=O)N[C@H](C)c4ccncc4)cc32)c(C)c1NC(=O)CCl [Compound 9k, (R,Z)-3-((4-(2-chloroacetamido)-3,5-dimethyl-1H-pyrrol-2-yl)methylene)-2-oxo-N-(1-(pyridin-4-yl)ethyl)indoline-5-carboxamide]

IC50 (bovine GRK2; [2]): 87 ± 30 µM
Structure (SMILES): C=CC(=O)Nc1c(C)[nH]c(/C=C2\C(=O)Nc3ccc(C(=O)N[C@H](C)c4ccccc4)cc32)c1C [Compound 9b, (R,Z)-3-((4-acrylamido-3,5-dimethyl-1H-pyrrol-2-yl)methylene)-2-oxo-N-(1-phenylethyl)indoline-5-carboxamide]

IC50 (PKA; Table 2, μM ± SD): > 250 µM
GRK2/GRK5 (GRK5; Table 2, ratio of IC50 values): 360
IC50 (bovine GRK2; [3]): 11 ± 6 µM
Structure (SMILES): Cc1cccc([C@@H](C)NC(=O)c2ccc3c(c2)/C(=C/c2[nH]c(C)c(NC(=O)CCl)c2C)C(=O)N3)c1 [Compound 9i, (R,Z)-3-((4-(2-chloroacetamido)-3,5-dimethyl-1H-pyrrol-2-yl)methylene)-2-oxo-N-(1-(m-tolyl)ethyl)indoline-5-carboxamide]

IC50 (bovine GRK2): > 250 µM
Structure (SMILES): Cc1[nH]c(/C=C2\C(=O)Nc3ccc(C(=O)N[C@H](C)c4ccccc4)cc32)c(C)c1NC(=O)C1CO1 (stereo partly drawn) [Compound 10l, (Z)-3-((3,5-dimethyl-4-(oxirane-2-carboxamido)-1H-pyrrol-2-yl)methylene)-2-oxo-N—((R)-1-phenylethyl)indoline-5-carboxamide]

pH After Assay [1]: 5
solubility thermodynamic ([1]; thermodynamic from solid): 125 µM and 64 µg/mL
IC50 (bovine GRK2; [2]): 17 ± 10 µM
Structure (SMILES): Cc1[nH]c(/C=C2\C(=O)Nc3ccc(C(=O)N[C@H](C)c4ccccc4)cc32)c(C)c1NC(=O)/C=C/CN(C)C [Compound 9f, (Z)-3-((4-((E)-4-(dimethylamino)but-2-enamido)-3,5-dimethyl-1H-pyrrol-2-yl)methylene)-2-oxo-N—((R)-1-phenylethyl)indoline-5-carboxamide]
